Measurements as given in the supplement of paper PMC10307832.

Experiments:
Test in all cases: relative viability (nuclei count vs DMSO), 5 days (fraction); higher = more cells survive
[1] = compound: C[C@@]1(C(=O)Nc2ccc(F)nc2)CCCN1c1nc(Nc2cc(C3CC3)n[nH]2)c2cccn2n1 + NC(=O)Nc1cc(-c2cccc(F)c2)sc1C(=O)N[C@H]1CCCNC1 [AZD7762] (partner 0.2 µM)
Procedure, shortened: (§1)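 After 5 days of treatment, lung cancer cells in 1536-well plates were fixed and stained in a single step (final 0.05% Triton X-100, 1% formaldehyde, 1 ug/ml Hoechst) and their nuclei counted on 4× images. Treatment had been applied by pin tool the day after seeding as one drug alone or as a fixed anchor-drug dose with five library-drug doses (not always all listed) in √10 steps. Relative viability is the nuclei count of treated wells divided by that of vehicle wells, and values are medians of duplicate plates.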

Motesanib + Crizotinib = compound: CC1(C)CNc2cc(NC(=O)c3cccnc3NCc3ccncc3)ccc21 [Motesanib] + C[C@@H](Oc1cc(-c2cnn(C3CCNCC3)c2)cnc1N)c1c(Cl)ccc(F)c1Cl [Crizotinib] (partner 1 µM)
Procedure, shortened: as §1

Motesanib + Bortezomib = compound: CC1(C)CNc2cc(NC(=O)c3cccnc3NCc3ccncc3)ccc21 [Motesanib] + CC(C)C[C@H](NC(=O)[C@H](Cc1ccccc1)NC(=O)c1cnccn1)B(O)O [Bortezomib] (partner 0.002 µM)
Procedure, shortened: as §1

[2] = compound: C[C@@]1(C(=O)Nc2ccc(F)nc2)CCCN1c1nc(Nc2cc(C3CC3)n[nH]2)c2cccn2n1 + CC(C)C[C@H](NC(=O)[C@H](Cc1ccccc1)NC(=O)c1cnccn1)B(O)O [Bortezomib] (partner 0.002 µM)
Procedure, shortened: as §1

Cell Line | relative viability ([1]; first compound 0.04 µM) | relative viability ([1]; first compound 0.1265 µM) | relative viability ([1]; first compound 0.4 µM) | relative viability ([1]; first compound 1.265 µM) | relative viability (Motesanib + Crizotinib; first compound 0.01 µM) | relative viability (Motesanib + Crizotinib; first compound 0.03162 µM) | relative viability (Motesanib + Crizotinib; first compound 0.1 µM) | relative viability (Motesanib + Crizotinib; first compound 0.3162 µM) | relative viability (Motesanib + Crizotinib; first compound 1 µM) | relative viability (Motesanib + Bortezomib; first compound 0.01 µM) | relative viability (Motesanib + Bortezomib; first compound 0.03162 µM) | relative viability (Motesanib + Bortezomib; first compound 0.1 µM) | relative viability (Motesanib + Bortezomib; first compound 0.3162 µM) | relative viability (Motesanib + Bortezomib; first compound 1 µM) | relative viability ([2]; first compound 0.04 µM) | relative viability ([2]; first compound 0.1265 µM) | relative viability ([2]; first compound 0.4 µM) | relative viability ([2]; first compound 1.265 µM)
NCI-H2087 | 1.26 | 1.25 | 1.09 | 1.23 | 0.686 | 0.983 | 0.951 | 0.878 | 0.93 | 0.796 | 0.781 | 0.885 | 0.76 | 0.704 | 0.778 | 0.825 | 0.624 | 0.631
BEN | 0.809 | 0.645 | 0.67 | 0.676 | 0.792 | 0.85 | 0.803 | 0.928 | 0.978 | 0.696 | 0.793 | 0.869 | 0.861 | 0.935 | 1.11 | 0.785 | 0.815 | 0.903
LCLC-103H | 0.7 | 0.748 | 0.6 | 0.691 |  | 1.13 | 0.986 | 1.08 | 1.15 |  | 1.02 | 1.16 | 1.03 | 1.07 | 1.07 | 1.08 | 0.788 | 0.958
EKVX | 0.671 | 0.505 | 0.489 | 0.578 | 0.988 | 0.889 | 0.916 | 1.09 | 0.898 | 1.1 | 1.19 | 1.04 | 1.14 | 1.06 | 1.01 | 1.05 | 0.796 | 0.926
LXF-289 | 1.1 | 1.03 | 0.968 | 1.12 | 0.822 | 0.823 | 0.82 | 0.842 | 0.867 | 0.985 | 0.976 | 1.03 | 1.13 | 1.03 | 1.01 | 0.929 | 0.961 | 1
ABC-1 | 0.833 | 0.595 | 0.643 | 0.593 | 0.996 | 1.03 | 1.26 | 1.14 | 1.32 | 0.282 | 0.341 | 0.221 | 0.284 | 0.292 | 0.329 | 0.318 | 0.264 | 0.183
NCI-H650 | 1.16 | 0.609 | 0.729 | 0.828 | 0.774 | 0.685 | 0.874 | 0.71 | 0.522 | 0.805 | 0.954 | 0.83 | 1.02 | 0.647 | 0.699 | 0.762 | 0.605 | 0.46
NCI-H2085 | 1.12 | 0.948 | 0.927 | 0.913 | 0.924 | 0.846 | 1.05 | 0.807 | 0.756 | 1.14 | 1.12 | 0.977 | 1.09 | 1.14 | 1.04 | 0.927 | 0.834 | 0.945
LC-2-ad | 0.657 | 0.586 | 0.543 | 0.391 | 0.442 | 0.46 |  | 0.441 | 0.484 | 1.02 | 1.03 | 1.04 | 1.14 | 0.942 | 1.06 | 0.845 | 0.805 | 0.411
NCI-H1355 | 0.694 | 0.579 | 0.539 | 0.598 | 1.12 | 1.14 | 0.994 | 1.07 | 1.05 | 1.2 | 1.33 | 1.22 | 1.35 | 1.18 | 1.15 | 1.04 | 0.948 | 0.969
H3255 | 0.96 | 0.931 | 0.811 | 0.855 | 0.793 | 0.883 | 0.986 | 0.838 | 0.863 | 0.714 | 0.733 | 0.637 | 0.936 | 0.799 | 0.973 | 1.02 | 0.719 | 0.669
NCI-H1993 | 0.495 | 0.496 | 0.455 | 0.567 | 0.964 | 0.848 | 0.842 | 0.824 | 0.865 | 1.09 | 1.06 | 1.08 | 1.28 | 1.06 | 0.797 |  | 0.615 | 0.674
NCI-H1734 | 0.54 | 0.459 | 0.377 | 0.446 | 0.685 | 0.645 | 0.654 | 0.68 | 0.673 | 1 | 0.929 | 1.01 | 0.918 | 1.09 | 0.856 | 0.781 | 0.641 | 0.577
HOP-62 | 0.812 | 0.541 | 0.427 | 0.547 | 0.899 | 0.82 | 0.859 | 1.05 | 0.932 | 0.862 | 0.791 | 0.735 | 0.802 | 0.907 | 0.752 | 0.67 | 0.704 | 1.02
LOU-NH91 | 0.683 | 0.723 | 0.626 | 0.642 | 0.743 | 0.746 | 0.743 | 0.769 | 0.729 | 0.468 | 0.507 | 0.486 | 0.52 | 0.581 | 0.482 | 0.519 | 0.481 | 0.493
ChaGo-K-1 | 0.845 | 0.815 | 0.862 | 0.841 |  | 1.16 | 1.1 | 1.18 | 1.15 |  | 0.666 | 0.841 | 0.976 | 1.11 | 1.01 | 0.797 | 1.1 | 0.824

Cell Line | relative viability ([1]; first compound 0.04 µM) | relative viability ([1]; first compound 0.1265 µM) | relative viability ([1]; first compound 0.4 µM) | relative viability ([1]; first compound 1.265 µM) | relative viability (Motesanib + Crizotinib; first compound 0.01 µM) | relative viability (Motesanib + Crizotinib; first compound 0.03162 µM) | relative viability (Motesanib + Crizotinib; first compound 0.1 µM) | relative viability (Motesanib + Crizotinib; first compound 0.3162 µM) | relative viability (Motesanib + Crizotinib; first compound 1 µM) | relative viability (Motesanib + Bortezomib; first compound 0.01 µM) | relative viability (Motesanib + Bortezomib; first compound 0.03162 µM) | relative viability (Motesanib + Bortezomib; first compound 0.1 µM) | relative viability (Motesanib + Bortezomib; first compound 0.3162 µM) | relative viability (Motesanib + Bortezomib; first compound 1 µM) | relative viability ([2]; first compound 0.04 µM) | relative viability ([2]; first compound 0.1265 µM) | relative viability ([2]; first compound 0.4 µM) | relative viability ([2]; first compound 1.265 µM)
PC-14 | 0.391 | 0.394 | 0.308 | 0.348 | 0.944 | 0.965 | 0.898 | 0.883 | 0.969 | 0.87 | 0.975 | 0.95 | 0.81 | 1.06 | 0.846 | 0.715 | 0.674 | 0.799
NCI-H1437 | 1 | 1.25 | 0.688 | 0.745 | 0.888 | 0.996 | 0.963 | 0.95 | 1.05 | 0.368 | 0.525 | 0.434 | 0.626 | 0.615 | 0.398 | 0.521 | 0.328 | 0.276
NCI-H460 | 0.737 | 0.667 | 0.609 | 0.649 | 0.935 | 0.75 | 0.945 | 0.927 | 0.902 | 1.09 | 1.18 | 1.08 | 1.25 | 1.1 | 1.13 | 0.991 | 0.892 | 0.93
NCI-H1666 | 0.838 | 0.667 | 0.642 | 0.552 | 1.02 | 1.06 | 0.949 | 0.958 | 1.03 | 0.845 | 0.766 | 0.816 | 0.77 | 0.862 | 0.678 | 0.434 | 0.455 | 0.444
NCI-H1651 | 0.52 | 0.371 | 0.409 | 0.447 | 0.836 | 0.835 | 0.786 | 0.912 | 0.838 | 0.914 | 0.883 | 0.932 | 0.873 | 0.929 | 0.956 | 0.871 | 0.864 | 0.825
NCI-H1755 | 0.481 | 0.424 | 0.378 | 0.406 | 0.862 | 0.867 | 0.893 | 0.91 | 0.882 | 0.927 | 0.957 | 1.06 | 0.988 | 1.02 | 0.957 | 0.838 | 0.85 | 0.881
HARA | 0.42 | 0.227 | 0.73 | 0.198 | 1.1 | 0.993 | 1.06 | 1.1 | 1.04 | 1.06 | 1.19 | 1.21 | 1.11 | 1.11 | 1.11 | 1.12 | 0.684 | 1.05
NCI-H596 | 1.1 | 1.07 | 0.94 | 1.19 | 0.937 | 0.884 | 0.958 | 1.12 | 1.05 | 0.995 | 0.872 |  | 1.18 | 0.995 | 0.908 | 0.892 | 0.929 | 1
NCI-H23 | 0.238 | 0.208 | 0.193 | 0.114 | 0.484 | 0.373 |  | 0.497 | 0.612 | 1.06 | 0.766 |  | 1.21 | 1.16 | 0.642 | 0.44 | 0.472 | 0.442
LCLC-97TM1 | 0.284 | 0.234 | 0.134 | 0.128 | 0.362 | 0.429 | 0.373 | 0.469 | 0.486 | 0.497 | 0.897 | 0.541 | 0.617 | 0.501 | 0.637 | 0.189 | 0.132 | 0.0641
EPLC-272H | 0.215 | 0.187 | 0.212 | 0.164 | 0.935 | 0.969 | 1.05 | 1.04 | 0.944 | 0.858 | 0.832 | 0.925 | 0.601 | 1 | 0.859 | 0.78 | 0.702 | 0.878
NCI-H1915 | 0.728 | 0.731 | 0.663 | 0.701 | 0.897 | 0.851 | 0.875 | 0.927 | 0.947 | 0.959 | 0.929 | 0.936 | 0.98 | 0.989 | 1.06 | 0.95 | 0.952 | 1.01
NCI-H2405 | 0.619 | 0.483 | 0.472 | 0.313 | 0.8 | 0.847 | 0.875 | 0.864 | 0.905 | 0.907 | 0.925 | 0.96 | 0.998 | 1.04 | 1 | 0.682 | 0.835 | 0.896
NCI-H322M | 0.45 | 0.424 | 0.492 | 0.35 | 1.06 | 0.835 | 1.04 | 0.974 | 0.946 | 1.32 | 1.24 | 1.39 | 1.36 | 1.23 | 1.22 | 0.894 | 1.06 | 1.1
NCI-H838 | 0.981 | 0.918 | 0.814 | 0.872 | 0.908 | 0.856 | 0.903 | 0.899 | 0.878 | 0.887 | 0.957 | 0.758 | 0.965 | 0.891 | 0.807 | 0.687 | 0.498 | 0.547
CAL-12T | 0.659 | 0.765 | 0.78 | 0.677 | 0.627 | 0.56 | 0.664 | 0.758 | 0.559 |  |  | 0.906 | 1.16 | 0.926 | 1.12 | 0.826 | 0.957 | 0.734
